Test results from publication PMC5510229, “BCAT1 controls metabolic reprogramming in activated human macrophages and is associated with inflammatory diseases” (Nature Communications, 2017).

Legend:
[1] = In vivo pharmacokinetics; design: species or system ICR mice; settings: ICR, mouse, plasma
Description: The experiment was performed by Eurofins Panlabs Inc. Briefly, fasting pharmacokinetic parameters were obtained after administration of 125 mg kg^−1 i.v. or 500 mg kg^−1 p.o ERG240 to ICR mice and blood collection at 3, 10, 30, 60, 120 and 240 min (i.v. dosing) or 10, 30, 60, 120, 240 and 360 min (p.o. dosing). Each animal was subjected to a single blood draw and 3 animals per time point were used. Parameters were obtained from non-compartmental analysis of the plasma data using WinNonlin. Experimental details are provided in Supplementary Methods. […]
In v ivo pharmaco kinetics
ICR mice that have been fasted overnight were administered 125 mg/kg ERG240 i.v. or 500 mg/kg ERG240 p.o. At predetermined time points, mice were sedated under general inhalant anaesthesia (3 % isoflurane) and 300- 400 µL of blood were collected in tubes coated with lithium heparin by cardiac puncture . The plasma was harvested after cent rifugation and kept frozen at - 20 °C until further processing. Proteins present in the plasma were precipitated b y acetonitrile. Specificall y, 50 µL of plasm a samples were trans ferred to a 9 6-well plate and 10 µL of a acetonitrile/water 50/50 (v/v) solution was added to each well. At this point, 150 μ L of 1 ng/μ L of aspirin in acetonitrile were also added as internal standard. After sample mixing and centrifugation, 100 µL supernatant were withdrawn from each well and mixed with […] w ater for HP LC -MS/MS analysis. Sample anal ysis b y HPLC -MS/MS employed a Agilent Poroshell 120 EC-C18 column 2.7μm (3.0 x 50mm) and a gradient elution with two mobile phases (A: acetonitrile/water/formic acid 99/1/0.02 (v/v/v);
B:acetonitrile/water/formic acid 1/99/0.02 (v/v/v)). A volume of […] of sample were injected into the column and the sample concentration was determined by employing calibration curves that were generated prior to sample anal ysis b y spiking drug- free plasma with specified concentrations of ERG240. The quantitation range was 5- 10000 ng/mL.
Following sample analysis, plots of plasma concentration of ERG240 vs. time were constructed. Fundamental pharmacokinetic parameters were calculated from the non-compartmental analysis of the plasma data using WinNonlin. […]
Pannus: 0=Normal; 1=Minimal infiltration of pannus in cartilage and subchondral bone; 2=Mild infiltration of pannus in cartilage with marginal zone destruction of hard tissue in affected joints; 3=Moderate infiltration of pannus in cartilage with moderate hard tissue destruction in affected joints; 4=Marked infiltration of pannus in cartilage with marked destruction of joint architecture, most joints; 5=Severe infiltration associated with total or near total destruction of joint architecture, all joints. Cartilage Damage: 0=Normal;

[2] = test system: collagen-induced arthritis (CIA); assay: Collagen-induced arthritis (CIA) in mice; format: in vivo, DBA/1 mice
Description: Figure 5 Orally administrated ERG240 reduced the severity of crescentic glomerulonephritis in rats and CIA in mice. (a) Glomerular crescents, serum creatinine, and proteinuria levels measured in vehicle and ERG240 treated rats at day 10 following induction of nephrotoxic nephritis. At least n=4 rats were used in each group. (b) Col1a1 immunofluorescence (IF) quantification (left panel), representative IF and Sirius red staining images (middle panel) and Col1a1 qRT-PCR (normalized to Hprt) 28 days following NTS injection. Original magnification, × 20, at least n=4 animals were used in each group. (c) Clinical progression of CIA measured by the Mean Arthritis Index in vehicle and ERG240-treated animals in both studies (prophylactic and therapeutic, upper panel; at least n=6 animals per group). Histological analysis of joints from representative whole paws scored for inflammation, pannus formation, cartilage damage and bone resorption (lower panel). Error bars are s.e.m. Either Mann–Whitney or Student’s t-test were used for significance. *** P<0.001, ** P<0.01, * P<0.05. Scale bars, 50 μm.
DBA/1 mice (6–8 weeks old from Harlan Sprague Dawley Inc.) were injected s.c. with 100 μg of bovine type II collagen emulsified in complete Freund’s adjuvant (Sigma). At day 21 following primary immunization, the mice were given a booster injection of 100 μg of bovine type II collagen emulsified in incomplete Freund’s adjuvant. The prophylactic arm of the study involved water-treated (vehicle control, n=6) and ERG240-treated (720 mg kg^−1, o.p., qdx5, 3 weeks, n=10) animals, while the therapeutic arm of the study involved water-treated (vehicle control, n=10) and ERG240-treated (1,000 mg kg^−1, o.p., qdx5, 4 weeks, n=10) animals. Parafin-embedded paws were sectioned at ∼5 μm. One slide from each paw was stained with hematoxylin and eosin (H&E) and served as a reference, while four additional slides were stained using antibodies against F4/80 (AbD Serotec). The expression of the above markers in the joints of the preserved CIA tissues was scored according to the following scale: 0=no staining; 1=minimal; 2=mild; 3=moderate; 4=marked; and 5=diffuse and severe staining (see Supplementary Methods for detailed histological evaluation of CIA tissues). Serum levels of TNF and RANKL were analysed using relevant ELISA kits from Biolegend (TNF-α) and Abcam (RANKL) according to the manufacturers’ instructions. Details for determining the presence of antibodies against type II collagen are provided in Supplementary Methods.
Clinical and histological evaluation methods in CIA
Development of arthritis was assessed ever y other da y and scored on a scale of 0-4 as follows: 0=no oedema or swelling, 1=slight oedema and er ythema restricted to the foot or ankle, 2=moderate to severe oedema and er ythema restricted to the foot or ankle, 3 =oedem a and erythema of the entire paw, and 4=maximum inflamed limb i nvolving multiple joints.
The maximal arthritic score or arthritic index (AI) per animal was 16 (cumulative for 4 limbs).Paw thickness was measured before termination of the experiment . […]
Histological evaluation of CIA t issues.
Dosing of the animals in the proph ylactic groups started on the da y of the booster injection (day 21), while dosing of the animals in the therapeutic groups started after arthritis was established (da y 26). Animals were scored for the presence of arthritis ever y other da y and weighed once a week. At the end of the study, sera were obtained b y cardiac puncture and paws were excised for histological examination (HistoTox Labs Inc). From each therap eutic group, three front and four hind paws were selected for histological an al ys is . Paws were fixed in 4% formalin and decalcified in formic acid. Parafin sections (8 µm) were stained with toluidine blue (T-blue). The sections were evaluated blindly and scored for inflammation, pannus infiltration, cartilage damage, and bone erosion according to scale shown here. […]

[3] = excised paws after completion of CIA

Structure (SMILES): CC(=O)C(C)CCC(=O)O (stereo not drawn) [ERG240]
- AUC(0-inf) ([1]; IV 125 mg kg^−1, mice): 149 µg·h/mL
- AUC(0-t) ([1]; IV 125 mg kg^−1, mice): 149 µg·h/mL
- C0 ([1]; IV 125 mg kg^−1, mice): 231 µg/mL
- MRT ([1]; IV 125 mg kg^−1, mice): 33 min
- clearance ([1]; IV 125 mg kg^−1, mice): 45.6 mL/min/kg
- half-life ([1]; IV 125 mg kg^−1, mice): 7.2 min
- AUC(0-inf) ([1]; oral 500 mg kg^−1, mice): 794 µg·h/mL
- AUC(0-t) ([1]; oral 500 mg kg^−1, mice): 794 µg·h/mL
- Cmax ([1]; oral 500 mg kg^−1, mice): 351 µg/mL
- MRT ([1]; oral 500 mg kg^−1, mice): 74.4 min
- Tmax ([1]; oral 500 mg kg^−1, mice): 60 min
- bioavailability ([1]; oral 500 mg kg^−1, mice, read-out: F (bioavailability)): 100%
- serum Tnf levels ([2]; CIA mice, ELISA): diminished levels
- serum Tnfsf11 (RANKL) levels ([2]; CIA mice, ELISA): diminished levels
- decrease of bone erosion (paw histology) [2, 3]: 86%
- decrease of cartilage degradation (paw histology) [2, 3]: 74%
- decrease of inflammation (paw histology) [2, 3]: 53%
- decrease of pannus formation (paw histology) [2, 3]: 86%
- F4/80+ macrophages in the joints ([2]; immunohistochemistry of excised paws): significant reduction
- joint oedema ([2]; only in the fore paws, therapeutic study): significant decrease
- severity of CIA (Mean Arthritis Index) ([2]; oral, prophylactic 720 mg kg^−1, therapeutic 1000 mg kg^−1): alleviates the severity of CIA
